The results in this text go back to patent US7335756B2, “Retinoic acid metabolizing cytochrome P450” (Cytochroma Inc., priority 2001, dated 2008).

Where “and” joins values, the source holds several entries; their conditions need not be identical. Identical values can stand only once. Like-named read-outs stand apart in the source and are kept apart here.

The target in data set [1] is T1, CYP26-B (Homo sapiens, UniProt Q9NR63).
T1 sequence (Q9NR63 1-512): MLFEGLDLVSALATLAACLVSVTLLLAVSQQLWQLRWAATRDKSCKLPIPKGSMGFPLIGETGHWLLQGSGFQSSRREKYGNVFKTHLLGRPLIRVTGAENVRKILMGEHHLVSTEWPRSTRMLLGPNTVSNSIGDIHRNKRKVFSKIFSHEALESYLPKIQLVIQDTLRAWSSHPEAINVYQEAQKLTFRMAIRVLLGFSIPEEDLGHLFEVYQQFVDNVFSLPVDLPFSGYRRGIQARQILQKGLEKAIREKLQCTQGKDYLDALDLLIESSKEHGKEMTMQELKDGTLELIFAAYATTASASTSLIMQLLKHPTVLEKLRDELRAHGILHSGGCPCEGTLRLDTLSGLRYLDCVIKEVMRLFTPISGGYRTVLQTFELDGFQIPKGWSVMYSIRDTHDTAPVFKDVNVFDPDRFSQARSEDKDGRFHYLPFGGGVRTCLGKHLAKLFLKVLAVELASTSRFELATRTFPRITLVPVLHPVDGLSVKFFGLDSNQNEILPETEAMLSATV
The experiment in a line: [3H]-RA-metabolism inhibition, transient Cos-CYP26-B cell-based assay. The note with it: at lower concentrations.

Data set [2] deals with T2, P450RAI-3 (Homo sapiens, UniProt Q6V0L0, F447L).
T2 sequence (Q6V0L0 1-522 F447L): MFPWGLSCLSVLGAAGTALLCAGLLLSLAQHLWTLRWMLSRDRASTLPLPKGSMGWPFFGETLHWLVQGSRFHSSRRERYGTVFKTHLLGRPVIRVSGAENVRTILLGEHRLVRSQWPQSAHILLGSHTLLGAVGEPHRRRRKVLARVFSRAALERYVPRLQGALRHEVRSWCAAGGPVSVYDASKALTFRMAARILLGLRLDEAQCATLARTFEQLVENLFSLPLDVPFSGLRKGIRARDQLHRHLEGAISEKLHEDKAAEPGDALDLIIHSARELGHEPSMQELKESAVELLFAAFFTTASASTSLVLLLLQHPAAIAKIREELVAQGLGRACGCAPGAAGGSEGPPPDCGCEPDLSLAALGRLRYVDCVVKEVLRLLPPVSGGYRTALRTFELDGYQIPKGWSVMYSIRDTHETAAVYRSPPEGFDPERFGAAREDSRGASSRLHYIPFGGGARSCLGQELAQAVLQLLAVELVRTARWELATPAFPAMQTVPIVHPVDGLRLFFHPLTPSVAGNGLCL
The experiment in a line: [3H]-RA-metabolism inhibition in Sf9-Bac-P450RAI-3 insect microsomes. Type of data set: biochemical. The note with it: 2 nM [3H]-RA, NADPH, 1 hour, read-out: ID50 (nM) Sf9-P450RAI-3. The protocol: Microsomes from P450RAI-3 and CYP26B infected Sf-9 cells were made as follows: exponentially growing cells were harvested, washed with ice-cold PBS, counted then homogenized and sonicated in lysis buffer containing protease inhibitors cocktail (10^8 cells par 5 ml lyses buffer). Since P450RAI-3 is a microsomal cytochrome, it preferably uses NADPH cytochromic P450 reductase and a flavoprotein for activity. The microsomes were isolated by differential centrifugations (10 min at 800×g, than 10 min at 10,000×g and finally the postmitichondirial supernatant was centrifuged at 100,000×g for 60 min using ultracentrifuge (Beckman). The microsomal pellet was isolated and homogenized gently in the storage buffer containing protease inhibitors cocktail. Protein concentration in the microsomal preparation was determined using a […] reaction assay kit with BSA as standards (Pierce). The absorbance at 562 nm of standards (BSA at 1, 0.5, 0.25, 0.125, and 0.0625 mg/ml) and 3 dilutions of microsomes samples (⅕, 1/10 and 1/20) was determined using an automatic microplate reader (μQuant, BioTek instruments Inc.). The protein concentration directly calculated by the software (KCJunior). […] Microsomes were assessed for P450 content by carbon monoxide assay and total P450 content was determined at 3 nmol/ml. […]

For data set [3], the target named is T2, P450RAI-3. Briefly: [3H]-RA-metabolism inhibition (substrate competition) in P450RAI-3 stable transfected Hela cells. Type of data set: cell-based. The arrangement: expressed in transfected cells. The note with it: 2 nM [3H]-RA. The protocol:
(§1) The purpose of these experiments is to determine the specific substrates for P450RAI-3. […] The RA metabolism reaction was started by the addition of 50 ul of [^3H]-RA solution (20000 cpm, 2 nM final concentration). Cells were incubated for 3 hours in a humidified CO2 incubator at 37 degrees Celsius. The reaction was stopped by the addition of 5 ul of 10% acetic acid. Organic and aqueous soluble radio-labelled metabolites were extracted using the Bligh-Dyer procedure.

In data set [4] the target is T2, P450RAI-3. The experiment in a line: ATRA and 9-cis-RA binding assay, Sf9-Bac-P450RAI-3 insect microsomes. As to conditions: for Kd: Table 4 prints no unit.
The target in data set [5] is T2, P450RAI-3. The experiment in a line: [3H]-RA-metabolism inhibition, transient Cos-P450RAI-3 cell-based assay. The arrangement: expressed in transfected cells; host or cells: COS-1 (transient, pcDNA-P450RAI-3, Fugene). As to conditions: at lower concentrations. Here is the method:
as §1

Data set [6] deals with T2, P450RAI-3. Briefly: [3H]-RA-metabolism inhibition in mammalian microsomes from transient P450RAI-3-transfected Cos cells. The data set is classed as biochemical. The arrangement: expressed in transfected cells; host or cells: COS-1 (transient, pcDNA-P450RAI-3, Fugene). Here is the method: (§2) RA-metabolism activity was assessed using RA-metabolism microsomes-based assay and Bligh Dyer extraction as follows: Using an automatic repeating-pipette, gently thawed and homogenized microsomes were plated in a 48-well plate in final volume of 150 μl of storage buffer containing 0.5 mg/ml BSA. At indicated concentration 2 μl of compound solution was added to the assay and 2 μl of DMSO was added to MS control (quadruplet) and No-MS control. 50 μl of [^3H]-RA solution (30,000 cpm, 2 nM final concentration) was added. The microsomes assay with the compounds and the [^3H]-ATRA were incubated first for 10 min at 37° C., and then the reaction started by adding 20 μl of NADPH solution (or 1 mM final). After 1-hour incubation the reaction was stopped by adding 5 μl of 10% acetic acid. Organic and aqueous soluble radio-labelled metabolites were extracted using the Bligh-Dyer procedure. Saturated activity obtained in presence of NADPH at 5 μg of microsomes, FIG. 14.
(§3) Microsomes prepared from either stable Hela-CYP26-B or transient P450RAI-3-transfected Cos cells were used.

In data set [7] the target is T1, CYP26-B. The experiment in a line: [3H]-RA-metabolism inhibition in mammalian microsomes from stable Hela-CYP26-B cells. The data set is classed as biochemical. Set-up: made in house; host or cells: HeLa cells stably expressing CYP26-B, microsomal fraction. Here is the method: as §2, with “The microsomes assay with the compounds and the [^3H]-ATRA were incubated first for 10 min at 37° C., and then the reaction started by adding 20 μl of NADPH solution (or 1 mM final).” left out
as §3

Data set [8] has as its target T1, CYP26-B. The experiment in a line: [3H]-RA-metabolism inhibition in Sf9-Bac-CYP26-B insect microsomes. As to conditions: at much higher concentrations. Type of data set: biochemical. The protocol: as §2, with “The microsomes assay with the compounds and the [^3H]-ATRA were incubated first for 10 min at 37° C., and then the reaction started by adding 20 μl of NADPH solution (or 1 mM final).” left out

The target in another data set is T3, CYP26-A (Homo sapiens, UniProt O43174, E104D/H105D/L421A/M420S).
T3 sequence (O43174 1-497 E104D/H105D/M420S/L421A): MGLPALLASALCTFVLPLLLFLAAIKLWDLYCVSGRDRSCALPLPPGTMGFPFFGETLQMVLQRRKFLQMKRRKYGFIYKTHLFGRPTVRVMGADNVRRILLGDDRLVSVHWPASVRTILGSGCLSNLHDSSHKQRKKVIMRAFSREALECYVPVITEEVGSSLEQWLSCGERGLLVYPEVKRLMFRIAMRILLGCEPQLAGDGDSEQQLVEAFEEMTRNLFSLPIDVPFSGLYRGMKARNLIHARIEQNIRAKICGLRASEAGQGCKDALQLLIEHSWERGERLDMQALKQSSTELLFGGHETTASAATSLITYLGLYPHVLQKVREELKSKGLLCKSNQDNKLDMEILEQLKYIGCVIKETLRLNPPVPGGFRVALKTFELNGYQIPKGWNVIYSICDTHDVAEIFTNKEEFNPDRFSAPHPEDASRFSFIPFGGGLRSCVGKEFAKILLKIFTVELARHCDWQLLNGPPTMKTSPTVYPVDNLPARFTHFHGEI
Briefly: 9-cis-RA binding assay, CYP26-A. The note with it: substrate 0.05 nM to 1000 nM, linear, Kd not determinable.

For data set [9], the target named is T2, P450RAI-3. Briefly: LC/MS analysis of ATRA and 9-cis-RA metabolism in Hela-P450RAI-3 stable cells. As to conditions: 5 hours. Here is the method:
After 5 hours incubation at 37° C., cells were acidified with acetic acid and total retinoids were extracted using Ethyl acetate method. The organic upper layer was pooled and evaporated in speed-vacuum, and dried residues were dissolved in HPLC mobile solvent and analyzed in LC/MS.
The HPLC system consisted of a waters alliance 2690 separations module. Chromatography was obtained on an Eclipse X DB-C18 reverse phase column (5 um, 2.1×150 mm from HP). A gradient elution program was used using acetonitrile, water and 10% acetic acid. The flow was held at 0.2 ml/min.
Mass Spectrometry condition used for this work consisted of a Micro-mass Quatro Ultima Tandem triple quadruple mass spectrometer equipped with electrospray interface (ESI) and operated in a negative mode.

Data set [10] addresses T1, CYP26-B. The experiment in a line: ATRA and 9-cis-RA binding assay, CYP26-B microsomes. Set-up: made in house; host or cells: HeLa cells stably expressing CYP26-B, microsomal fraction. The note with it: substrate 0.05 nM to 1000 nM, linear, Kd not determinable.
Data set [11] addresses T2, P450RAI-3. Briefly: ATRA / 9-cis-RA metabolism in pcDNA-P450RAI-3 transfected Cos-1 cells (Bligh-Dyer, HPLC). Type of data set: cell-based. Set-up: expressed in transfected cells; host or cells: COS-1 (transient, pcDNA-P450RAI-3, Fugene). The note with it: 2 nM radio-labeled substrate, 3 hours. Here is the method: Mammalian Cos-1 cells were transfected with either pcDNA-P450RAI-3 or pcDNA-control vector using Fugene™ (Roche diagnostic) according to the manufacturers directions. After 48 hours post-tranfection, cells were washed with PBS and assessed for ATRA-metabolism activity as described Briefly, transfected cells were incubated with radio-labeled ^3[H]-ATRA (18000 cpm, 2 nM) for 3 hours. Organic and Water-soluble metabolites were extracted using Bligh-Dyer procedure and radioactivity counted (FIG. 10).
HPLC analysis of the organic metabolites: the Bligh-Dyer organic button-layer was dried out and residues were suspended in HPLC solvent and then analyzed by HPLC as described in [White et al, PNAS, vol 97, pg 6403-6408], FIG. 11.
Mammalian Cos-1 cells were transfected with either pcDNA-P450RAI-3 or pcDNA-control vector according to the manufacturers directions using Fugene (Roche). After 48 hours post-tranfection, cells were washed with PBS and assessed for 9-cis-RA-metabolism activity as described using Bligh-Dyer procedure. Briefly, transfected cells were incubated with radio-labeled ^3[H]-9-cis-RA (38000 cpm, 2 nM) for 3 hours. Organic and Water-soluble metabolites were extracted using Bligh-Dyer procedure and radioactivity counted, FIG. 19.

Take `CC(=O)N1CCN(c2ccc(OCC3COC(Cn4ccnc4)(c4ccc(Cl)cc4Cl)O3)cc2)CC1` (stereo not drawn) [Ketoconazole, ketoconazole]: the “competition / inhibition of CYP26-B” value on CYP26-B [1] was “inhibited”. Besides, the IC50 on P450RAI-3 [2] was more than 10000 nM; on P450RAI-3 [3] (read-out: ID50, competition for P450RAI-3 [3H]-RA metabolism), 70 µM; at P450RAI-3 [6] (read-out: ID50 (nM) P450RAI-3) it was 72000 nM; on P450RAI-3 [6] (read-out: ID50 P450RAI-3), 70000 nM. Also, on P450RAI-3 [4] (Kd, competition of ATRA binding to P450RAI-3, ketoconazole up to 100 μM, μM), the Kd was 70.5 µM and 75 µM. At P450RAI-3 [4] (read-out: inhibition of ATRA binding to P450RAI-3), the inhibition at 10 µM was 15%. Moreover, the “competition / inhibition of P450RAI-3” value at P450RAI-3 [5] was “weak inhibitor”.
`CC1=C(/C=C/C(C)=C/C=C/C(C)=C\C(=O)O)C(C)(C)CCC1` [13-cis-RA]: on CYP26-B [1], the “competition / inhibition of CYP26-B” value is “not a substrate”. The “competition for CYP26B” value at CYP26-B [7] is listed as “did not compete at lower concentrations”. Also, at P450RAI-3 [5], the “competition / inhibition of P450RAI-3” value is listed as “not a substrate”.
Consider `CC1=C(/C=C/C(C)=C/C=C/C(C)=C/CO)C(C)(C)CCC1` [Retinol], for which the “substrate for CYP26-C” value on P450RAI-3 [3] is “not substrates”.
Turning to `CC1=C(/C=C/C(C)=C/C=C/C(C)=C/C=O)C(C)(C)CCC1` [Retinal], the “substrate for CYP26-C” value on P450RAI-3 [3] is “not substrates”.
As for `CC1=C(/C=C/C(C)=C\C=C\C(C)=C\C(=O)O)C(C)(C)CCC1` [9-cis-RA, 9-cis-retnoic acid], the “competition for CYP26-B” value on CYP26-B [8] is “very weak 9-cis-RA competition”. Besides, the “binding to CYP26-A” value at CYP26-A is given as “weak binding”. Besides, the “metabolites formed by P450RAI-3” value on P450RAI-3 [9] was “hydroxy and oxo-metabolites”. For the same molecule, the Kd on P450RAI-3 [4] (read-out: Kd, substrate binding to P450RAI-3, insect microsomes, nM) is 0.069 µM. For the same molecule, the “binding to P450RAI-3 microsomes” value at P450RAI-3 [4] (substrate 0.05 nM to 1000 nM) is reported as “Very good binding”. In addition, the “binding to CYP26-B” value at CYP26-B [10] was “weak binding”. Moreover, the “competition / inhibition of P450RAI-3” value on P450RAI-3 [5] is reported as “competed only for P450RAI-3”. Besides, the “metabolism by P450RAI-3” value on P450RAI-3 [11] was “converted 9-cis-RA to the hydoxy and oxo-metabolites and to more polar water-soluble metabolites”.
